Experiments:
Assay type in all cases: in vivo
[1] = system: barnyardgrass (Echinochloa crus-galli); assay: Test A preemergence soil spray, visual injury rating 0-100; conditions: 10 days, 0 = no effect, 100 = complete control
In short: (§1)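 Preemergence directed soil spray or postemergence spray (2-10 cm, 1-2 leaf); loam/sand mix; compound in non-phytotoxic solvent + surfactant. Greenhouse, 10 d. Visual injury vs untreated, 0 = none, 100 = complete control.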

[2] = system: blackgrass (Alopecurus myosuroides); assay: as above; conditions: 10 days, 0 = no effect, 100 = complete control
In short: as §1

corn (Zea mays) [3] = assay: as above; conditions: 10 days, 0 = no effect, 100 = complete control
In short: as §1

[4] = system: green foxtail (Setaria viridis); assay: as above; conditions: 10 days, 0 = no effect, 100 = complete control
In short: as §1

kochia (Bassia scoparia) [5] = assay: as above; conditions: 10 days, 0 = no effect, 100 = complete control
In short: as §1

[6] = system: oat, wild (wild oat, Avena fatua); assay: as above; conditions: 10 days, 0 = no effect, 100 = complete control
In short: as §1

[7] = system: palmer (palmer amaranth, palmer pigweed, Amaranthus palmeri); assay: as above; conditions: 10 days, 0 = no effect, 100 = complete control
In short: as §1

[8] = system: ragweed (common ragweed, Ambrosia artemisiifolia); assay: as above; conditions: 10 days, 0 = no effect, 100 = complete control
In short: as §1

[9] = system: ryegrass, Italian (italian ryegrass, Lolium multiflorum); assay: as above; conditions: 10 days, 0 = no effect, 100 = complete control
In short: as §1

soybean (Glycine max) [10] = assay: as above; conditions: 10 days, 0 = no effect, 100 = complete control
In short: as §1

[11] = system: wheat (Triticum aestivum); assay: as above; conditions: 10 days, 0 = no effect, 100 = complete control
In short: as §1

[12] = system: barnyardgrass (Echinochloa crus-galli); assay: Test A postemergence application, visual injury rating 0-100; conditions: Postemergence
In short: as §1

[13] = system: blackgrass (Alopecurus myosuroides); assay: as above; conditions: Postemergence
In short: as §1

corn (Zea mays) [14] = assay: as above; conditions: Postemergence
In short: as §1

[15] = system: galium (catchweed bedstraw, Galium aparine); assay: as above; conditions: Postemergence
In short: as §1

[16] = system: green foxtail (Setaria viridis); assay: as above; conditions: Postemergence
In short: as §1

[17] = system: horseweed (Erigeron canadensis); assay: as above; conditions: Postemergence
In short: as §1

kochia (Bassia scoparia) [18] = assay: as above; conditions: Postemergence
In short: as §1

[19] = system: oat, wild (wild oat, Avena fatua); assay: as above; conditions: Postemergence
In short: as §1

[20] = system: palmer (palmer amaranth, palmer pigweed, Amaranthus palmeri); assay: as above; conditions: Postemergence
In short: as §1

[21] = system: ragweed (common ragweed, Ambrosia artemisiifolia); assay: as above; conditions: Postemergence
In short: as §1

[22] = system: ryegrass, Italian (italian ryegrass, Lolium multiflorum); assay: as above; conditions: Postemergence
In short: as §1

soybean (Glycine max) [23] = assay: as above; conditions: Postemergence
In short: as §1

[24] = system: wheat (Triticum aestivum); assay: as above; conditions: Postemergence
In short: as §1

[25] = system: barnyardgrass (Echinochloa crusgalli); assay: Test B flooded paddy test, visual plant response rating 0-100; conditions: 250 g ai/ha, Flood, applied to paddy water, evaluated after 13 days
In short: (§2)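 Visual scores versus untreated controls were recorded 13 days after treatment of greenhouse-held plants. At the 2-leaf stage, pots were flooded 3 cm above the soil surface and compounds added straight to the water.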

[26] = system: ducksalad (Heteranthera limosa); assay: as above; conditions: 250 g ai/ha, Flood, applied to paddy water, evaluated after 13 days
In short: as §2

rice (Oryza sativa) = assay: as above; conditions: 250 g ai/ha, Flood, applied to paddy water, evaluated after 13 days
In short: as §2

[27] = system: sedge, umbrella (small-flower umbrella sedge, Cyperus difformis); assay: as above; conditions: 250 g ai/ha, Flood, applied to paddy water, evaluated after 13 days
In short: as §2

[28] = 31 g ai/ha, greenhouse 10 days, 0 no effect, 100 complete control
[29] = 125 g ai/ha, 10 days, 0 is no effect, 100 is complete control

**Q.** With `CC(C)COC(=O)C1C=CC(NC(=O)C2(C)CN(c3cc(Cl)cc(Cl)c3)C(=O)O2)C1` (stereo not shown) [Compound 66] as the molecule, how does the “Barnyardgrass plant response rating (0-100)” value ([1]; 31 g ai/ha) read?
**A.** 50

**Q.** What about the “Barnyardgrass plant response rating (0 to 100 scale)” value ([1]; 125 g ai/ha) of the same molecule?
**A.** 90

**Q.** And the “Blackgrass plant response rating (0-100)” value ([2]; 31 g ai/ha)?
**A.** 30

**Q.** What about the “Blackgrass plant response rating (0 to 100 scale)” value ([2]; 125 g ai/ha) of the same molecule?
**A.** 80

**Q.** And the “Corn plant response rating (0-100)” value (corn (Zea mays) [3]; 31 g ai/ha)?
**A.** 0

**Q.** And the “Corn plant response rating (0 to 100 scale)” value (corn (Zea mays) [3]; 125 g ai/ha)?
**A.** 60

**Q.** What about the “Foxtail, Green plant response rating (0-100)” value ([4]; 31 g ai/ha) of the same molecule?
**A.** 20

**Q.** And the “Foxtail, Green plant response rating (0 to 100 scale)” value (“Foxtail … (0 to 100 scale)” below) ([4]; 125 g ai/ha)?
**A.** 100

**Q.** What about the “Kochia plant response rating (0-100)” value (kochia (Bassia scoparia) [5]; 31 g ai/ha) of the same molecule?
**A.** 0

**Q.** What about the “Kochia plant response rating (0 to 100 scale)” value (kochia (Bassia scoparia) [5]; 125 g ai/ha) of the same molecule?
**A.** 30

**Q.** And the “Oat, Wild plant response rating (0-100)” value ([6]; 31 g ai/ha)?
**A.** 0

**Q.** And the “Oat, Wild plant response rating (0 to 100 scale)” value (“Oat … (0 to 100 scale)” below) ([6]; 125 g ai/ha)?
**A.** 90

**Q.** And the “Amaranth, Palmer plant response rating (0-100)” value ([7]; 31 g ai/ha)?
**A.** 90

**Q.** What about the “Amaranth, Palmer plant response rating (0 to 100 scale)” value ([7]; 125 g ai/ha) of the same molecule?
**A.** 100

**Q.** And the “Ragweed plant response rating (0-100)” value ([8]; 31 g ai/ha)?
**A.** 0

**Q.** And the “Ragweed plant response rating (0 to 100 scale)” value ([8]; 125 g ai/ha)?
**A.** 70

**Q.** And the “Ryegrass, Italian plant response rating (0-100)” value ([9]; 31 g ai/ha)?
**A.** 50

**Q.** And the “Ryegrass, Italian plant response rating (0 to 100 scale)” value (from here on “Ryegrass … (0 to 100 scale)”) ([9]; 125 g ai/ha)?
**A.** 90

**Q.** What about the “Soybean plant response rating (0-100)” value (soybean (Glycine max) [10]; 31 g ai/ha) of the same molecule?
**A.** 0

**Q.** What about the “Soybean plant response rating (0 to 100 scale)” value (soybean (Glycine max) [10]; 125 g ai/ha) of the same molecule?
**A.** 0

**Q.** What about the “Wheat plant response rating (0-100)” value ([11]; 31 g ai/ha) of the same molecule?
**A.** 10

**Q.** And the “Wheat plant response rating (0 to 100 scale)” value ([11]; 125 g ai/ha)?
**A.** 70

**Q.** And the “Barnyardgrass plant response rating (0 to 100 scale)” value [12, 28]?
**A.** 100

**Q.** And the “Barnyardgrass plant response rating (0 to 100 scale)” value [12, 29]?
**A.** 100

**Q.** What about the “Blackgrass plant response rating (0 to 100 scale)” value [13, 28] of the same molecule?
**A.** 90

**Q.** What about the “Blackgrass plant response rating (0 to 100 scale)” value [13, 29] of the same molecule?
**A.** 90

**Q.** And the “Corn plant response rating (0 to 100 scale)” value (corn (Zea mays) [14]; [28])?
**A.** 90

**Q.** And the “Corn plant response rating (0 to 100 scale)” value (corn (Zea mays) [14]; [29])?
**A.** 100

**Q.** What about the “Galium plant response rating (0 to 100 scale)” value [15, 28] of the same molecule?
**A.** 70

**Q.** What about the “Galium plant response rating (0 to 100 scale)” value [15, 29] of the same molecule?
**A.** 80

**Q.** What about the “Foxtail … (0 to 100 scale)” value [16, 28] of the same molecule?
**A.** 70

**Q.** And the “Foxtail … (0 to 100 scale)” value [16, 29]?
**A.** 90

**Q.** And the “Horseweed plant response rating (0 to 100 scale)” value [17, 28]?
**A.** 40

**Q.** What about the “Horseweed plant response rating (0 to 100 scale)” value [17, 29] of the same molecule?
**A.** 70

**Q.** What about the “Kochia plant response rating (0 to 100 scale)” value (kochia (Bassia scoparia) [18]; [28]) of the same molecule?
**A.** 70

**Q.** What about the “Kochia plant response rating (0 to 100 scale)” value (kochia (Bassia scoparia) [18]; [29]) of the same molecule?
**A.** 80

**Q.** And the “Oat … (0 to 100 scale)” value [19, 28]?
**A.** 90

**Q.** What about the “Oat … (0 to 100 scale)” value [19, 29] of the same molecule?
**A.** 90

**Q.** What about the “Amaranth, Palmer / Pigweed, Palmer plant response rating (0 to 100 scale)” value [20, 28] of the same molecule?
**A.** 90

**Q.** What about the “Amaranth, Palmer / Pigweed, Palmer plant response rating (0 to 100 scale)” value [20, 29] of the same molecule?
**A.** 90

**Q.** What about the “Ragweed plant response rating (0 to 100 scale)” value [21, 28] of the same molecule?
**A.** 70

**Q.** What about the “Ragweed plant response rating (0 to 100 scale)” value [21, 29] of the same molecule?
**A.** 80

**Q.** What about the “Ryegrass … (0 to 100 scale)” value [22, 28] of the same molecule?
**A.** 70

**Q.** What about the “Ryegrass … (0 to 100 scale)” value [22, 29] of the same molecule?
**A.** 100

**Q.** What about the “Soybean plant response rating (0 to 100 scale)” value (soybean (Glycine max) [23]; [28]) of the same molecule?
**A.** 80

**Q.** What about the “Soybean plant response rating (0 to 100 scale)” value (soybean (Glycine max) [23]; [29]) of the same molecule?
**A.** 80

**Q.** And the “Wheat plant response rating (0 to 100 scale)” value [24, 28]?
**A.** 90

**Q.** And the “Wheat plant response rating (0 to 100 scale)” value [24, 29]?
**A.** 90

**Q.** And the “Plant response rating, Barnyardgrass (0 to 100 scale, 0 is no effect and 100 is complete control)” value [25]?
**A.** 75

**Q.** And the “Plant response rating, Ducksalad (0 to 100 scale, 0 is no effect and 100 is complete control)” value [26]?
**A.** 95

**Q.** What about the “Plant response rating, Rice (0 to 100 scale, 0 is no effect and 100 is complete control)” value (rice (Oryza sativa)) of the same molecule?
**A.** 15

**Q.** What about the “Plant response rating, Sedge, Umbrella (0 to 100 scale, 0 is no effect and 100 is complete control)” value [27] of the same molecule?
**A.** 100
